In assay [1] the test system is CoC1 cells. Kind of assay: CellTiter-Glo Luminescent Cell Viability Assay on ovary cancer CoC1 cells. It is filed as cell-based. Conditions: 72 hours, read-out: Inhibition of the viability of ovary cancer cells, IC50. The procedure: B: In Vitro CellTiter-Glo® Luminescent Cell Viability Assay on Ovary Cancer CoC1 Cells
(§1) The ovary cancer CoC1 cells were obtained from Cancer hospital, Chinese Academy of Medical Sciences and maintained in RPMI-1640 and 10% fetal calf serum at 37° C., under 5% CO2 atmosphere. The cells were seeded on 96-well plate at a density of 6×10^3 cells per well. CoC1 cells were treated with a test compound dissolved in DMSO at the concentrations of zero, 0.3 μM, 0.5 μM, 1 μM, 2 μM, 3 μM, 5 μM, 10 μM, 30 μM, 50 μM and 100 μM for 72 hours. Treated cells were examined by CellTiter-Glo® Luminescent Cell Viability Assay Kit (Promega), and luminescence values were recorded with Envision.

Assay [2] relates to MDA-MB-231 cells. Kind of assay: CellTiter-Glo Luminescent Cell Viability Assay on ER-negative breast cancer MDA-MB-231 cells. The format is cell-based. The following applies: average ± standard deviation when tested more than 3 times, read-out: Inhibition of the viability of breast cancer cells, IC50. The procedure, abridged: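 Cells seeded at 6×10^3 per well in DMEM with 10% FCS and exposed 72 h to compound at 0 to 100 μM (twelve concentrations, DMSO vehicle). Viability measured by CellTiter-Glo luminescence.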
(In general: In ATP-based viability assays light output follows the ATP content of the culture.)

The subject of assay [3] is HO8910 cells. Put plainly: CellTiter-Glo Luminescent Cell Viability Assay on ovary cancer HO8910 cells. The format is cell-based. Conditions: HO-8910 cells; 72 hours; read-out: Inhibition of the viability of ovary cancer cells, IC50. As to the method:
A: In Vitro CellTiter-Glo® Luminescent Cell Viability Assay on Ovary Cancer HO8910 Cells
Ovary cancer HO8910 cells were obtained from Type Culture Collection of the Chinese Academy of Sciences, Shanghai, and maintained in RPMI-1640 and 10% fetal calf serum at 37° C., under 5% CO2 atmosphere. The cells were seeded on 96-well plate at a density of 6×10^3 cells per well. HO8910 cells were treated with a test compound dissolved in DMSO at the concentrations of zero, 0.3 μM, 0.5 μM, 1 μM, 2 μM, 3 μM, 5 μM, 10 μM, 20 μM, 30 μM, 50 μM and 100 μM for 72 hours. Treated cells were examined by CellTiter-Glo® Luminescent Cell Viability Assay Kit (Promega), and luminescence values were recorded with Envision.

The test system of assay [4] is SK-OV3 cells. Put plainly: CellTiter-Glo Luminescent Cell Viability Assay on ovary cancer SK-OV3 cells. The following applies: read-out: Inhibition of the viability of ovary cancer cells, IC50. It is filed as cell-based. As to the method: C: In Vitro CellTiter-Glo® Luminescent Cell Viability Assay on Ovary Cancer SK-OV3 Cells
as §1, with “ovary cancer SK-OV3 cells were” for “ovary cancer CoC1 cells were”, “per well. SK-OV3 cells were” for “per well. CoC1 cells were”, “μM, 10 μM, 20 μM, 30” for “μM, 10 μM, 30”

The test system of assay [5] is MCF7 cells. Kind of assay: CellTiter-Glo Luminescent Cell Viability Assay on ER-positive breast cancer MCF-7 cells. The format is cell-based, human. Conditions: average ± standard deviation when tested more than 3 times, read-out: Inhibition of the viability of breast cancer cells, IC50. The procedure, abridged:
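MCF7 cells (DMEM, 10% FCS, 37 °C) treated 72 h with compound at 0–100 μM (0.3, 0.5, 1, 2, 3, 5, 10, 20, 30, 50, 100 μM). Viability measured by CellTiter-Glo luminescence.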

Assay [6] relates to HL-60 cells. Put plainly: CellTiter-Glo Luminescent Cell Viability Assay on leukemia HL-60 cells. The following applies: Homo sapiens, 72 hours, read-out: Inhibition of the viability of leukemia cells, IC50. The format is cell-based, human. The procedure:
B: In Vitro CellTiter-Glo® Luminescent Cell Viability Assay on Leukemia HL-60 Cells
The leukemia HL-60 cells were obtained from ATCC and maintained in IMDM and 10% fetal calf serum at 37° C., under 5% CO2 atmosphere. The cells were seeded on 96-well plate at a density of 6×10^3 cells per well. HL-60 cells were treated with a test compound dissolved in DMSO at the concentrations of zero, 0.3 μM, 0.5 μM, 1 μM, 2 μM, 3 μM, 5 μM, 10 μM, 20 μM, 30 μM, 50 μM and 100 μM for 72 hours. Treated cells were examined by CellTiter-Glo® Luminescent Cell Viability Assay Kit (Promega), and luminescence values were recorded with Envision.

The subject of assay [7] is Hep3B2.1-7 cells. Kind of assay: MTT assay, in vitro growth of liver cancer Hep3B2.1-7 cells. The following applies: 72 hours; for IC50: read-out: Inhibition on liver cancer cells, IC50. It is filed as cell-based. The procedure: The liver cancer Hep3B2.1-7 cells were obtained from ATCC. Cells were incubated in 1640 culture medium with 5% fetal calf serum and 100 U/ml double-antibody in a cell incubator at 37° C., 5% CO2 atmosphere and passaged via conventional methods. The sample was dissolved in DMSO, formulated into 50 mg/ml stocking solution, and stored at 4° C. The test solutions at 50, 25, 12.5 and 6.25 μg/ml were formulated with culture medium immediately before use.
The adherent cells were digested with cell digestive solution, and then the exfoliated cells were collected and counted. The cell suspension was formulated with 1640 culture medium containing 5% fetal calf serum (5.0×10^4/ml). The cell suspension was seeded on 96-well plate with 100 μl/well, and maintained in a cell incubator at 37° C., 5% CO2 atmosphere for 24 hours. After that, the compounds at various concentrations were added, where solvent was taken as negative control and Taxol as positive control. 10 μl MTT (5 mg/ml) was added after 72 hours. The supernatant was removed after cultivation for 3 hours more, 150 μl DMSO was added and the formazan was dissolved on shaking. OD values were measured at 570 nm after homogeneous mixing, and inhibition rate and IC50 values were calculated based on the mean of OD values from 3 wells.
For orientation: Tetrazolium dyes change colour on reduction, which living cells bring about.

Assay [8] has as its system K562 cells. Put plainly: CellTiter-Glo Luminescent Cell Viability Assay on leukemia K562 cells. The format is cell-based, human. Conditions: Homo sapiens, 72 hours, read-out: Inhibition of the viability of leukemia cells, IC50. The procedure:
A: In Vitro CellTiter-Glo® Luminescent Cell Viability Assay on Leukemia K562 Cells
The leukemia K562 cells were obtained from ATCC and maintained in IMDM and 10% fetal calf serum at 37° C., under 5% CO2 atmosphere. The cells were seeded on 96-well plate at a density of 6×10^3 cells per well. K562 cells were treated with a test compound dissolved in DMSO at the concentrations of zero, 0.3 μM, 0.5 μM, 1 μM, 2 μM, 3 μM, 5 μM, 10 μM, 20 μM, 30 μM, 50 μM and 100 μM for 72 hours. Treated cells were examined by CellTiter-Glo® Luminescent Cell Viability Assay Kit (Promega), and luminescence values were recorded with Envision.

Assay [9] has as its system Molt-4 cells. Put plainly: CellTiter-Glo Luminescent Cell Viability Assay on leukemia Molt-4 cells. The format is cell-based. The following applies: Homo sapiens, 72 hours, read-out: Inhibition of the viability of leukemia cells, IC50. As to the method: C: In Vitro CellTiter-Glo® Luminescent Cell Viability Assay on Leukemia Molt-4 Cells
The leukemia Molt-4 cells were obtained from ATCC and maintained in RPMI-1640 and 10% fetal calf serum at 37° C., under 5% CO2 atmosphere. The cells were seeded on 96-well plate at a density of 6×10^3 cells per well. […] were treated with a test compound dissolved in DMSO at the concentrations of zero, 0.3 μM, 0.5 μM, 1 μM, 2 μM, 3 μM, 5 μM, 10 μM, 20 μM, 30 μM, 50 μM and 100 μM for 72 hours. Treated cells were examined by CellTiter-Glo® Luminescent Cell Viability Assay Kit (Promega), and luminescence values were recorded with Envision.

The mark [10] stands for this setting: Homo sapiens, SK-OV-3, 72 hours.

The values below come from US9090583B2, “Benzopyrone estrogen receptor regulator” (BEIJING SHENOGEN PHARMA GROUP LTD., priority 2010, dated 2015).

Values after ≈ are worked out from the molar mass of the structure shown. Like-named read-outs stand apart in the source and are kept apart here. Bounds are passed on as bounds.

A word on the IC50: it is the concentration that inhibits the measured activity by half. For `COc1cc(-c2oc3c(CC=C(C)C)c(O)c(CC=C(C)C)c(O)c3c(=O)c2OC)ccn1` [Compound 27, 2-(2-methoxypyridin-4-yl)-5,7-dihydroxy-3-methoxy-6,8-di(3-methyl-2-buten-1-yl)-4H-benzopyran-4-one], the half-inhibitory concentration (IC50) in [1] amounted to 9.23 µM; in assay [2] (Homo sapiens, MDA-MB-231, 72 h), 10.3 ± 0.56 µM; in assay [3] it was 17.6 µM; in assay [4] (setting [10]), 7.23 µM; in assay [5] (Homo sapiens, MCF7, 72 h), 6.17 ± 0.05 µM.

`COc1c(-c2ccc(F)c(F)c2)oc2c(CC=C(C)C)c(O)c(CC=C(C)C)c(O)c2c1=O` [Compound 4, 2-(3,4-difluorophenyl)-5,7-dihydroxy-3-methoxy-6,8-di(3-methyl-2-buten-1-yl)-4H-benzopyran-4-one]: the IC50 turned out to be 10.1 µM in assay [6]; 1.38 µg/mL (≈ 3.02 µM) in assay [7]; 6.37 ± 0.03 µM in [2] (Homo sapiens, MDA-MB-231, 72 h); 14 µM in [3]; 8.65 µM in [8]; 6.42 µM in [4] (setting [10]). Also, the IC50 in [9] was 10.3 µM; in assay [5] (Homo sapiens, MCF7, 72 h), 4.95 ± 0.65 µM.

For `COc1ccc(-c2cc(=O)c3c(O)c(CC=C(C)C)c(O)c(CC=C(C)C)c3o2)cc1Cl` [Compound 90, 2-(3-chloro-4-trimethoxyphenyl)-5,7-dihydroxy-6,8-di(3-methyl-2butylene-1-yl)-4H-benzopyran-4-one], the IC50 in assay [1] is over 100 µM; in [2] (72 hours) it was 10.7 ± 1.38 µM; in [3], over 100 µM; in assay [4] (72 hours) it was over 100 µM; in assay [5] (72 hours), 8.98 µM.

On to `COc1c(-c2ccc(F)c(F)c2)oc2c(CC=C(C)C)c(O)c(CC=C(C)C)c(OC)c2c1=O` [Compound 83, 2-(3,4-difluorophenyl)-7-hydroxy-3,5-dimethoxy-6,8-di(3-methyl-2-buten-1-yl)-4H-benzopyran-4-one], for which the IC50 in assay [6] was over 100 µM; in [2] (Homo sapiens, MDA-MB-231, 72 h) it was 11.3 ± 0.86 µM; in assay [8], over 100 µM; in [9] it was over 100 µM; in assay [5] (Homo sapiens, MCF7, 72 h) it was 10.6 ± 3.06 µM.

Consider `COc1c(-c2ccc(Cl)c(F)c2)oc2c(CC=C(C)C)c(O)c(CC=C(C)C)c(OC)c2c1=O` [Compound 84, 2-(3-fluoro-4-chlorophenyl)-7-hydroxy-3,5-dimethoxy-6,8-di(3-methyl-2-buten-1-yl)-4H-benzopyran-4-one], for which the IC50 worked out at 23.4 µM in assay [1]; 13.5 µM in [2] (Homo sapiens, MDA-MB-231, 72 h); 23.4 µM in assay [3]; 15.7 µM in assay [4] (setting [10]); 6.89 µM in assay [5] (Homo sapiens, MCF7, 72 h).

For the compound `COc1ccc(-c2oc3c(CC=C(C)C)c(O)c(CC=C(C)C)c(O)c3c(=O)c2OC)cn1` [Compound 26, 2-(6-methoxypyridin-3-yl)-5,7-dihydroxy-3-methoxy-6,8-di(3-methyl-2-buten-1-yl)-4H-benzopyran-4-one], the IC50 in assay [1] came out at 17.8 µM; in assay [2] (Homo sapiens, MDA-MB-231, 72 h), 12.8 ± 1.78 µM; in assay [3], 24.3 µM; in assay [4] (setting [10]) it was 40.1 µM; in assay [5] (Homo sapiens, MCF7, 72 h) it was 11 ± 1.34 µM.

Consider `COc1c(-c2ccc(O)c(C)c2)oc2c(CC=C(C)C)c(O)c(CC=C(C)C)c(O)c2c1=O` [Compound 75, 2-(3-methyl-4-hydroxyphenyl)-5,7-dihydroxy-3-methoxy-6,8-di(3-methyl-2-buten-1-yl)-4H-benzopyran-4-one], for which the IC50 in assay [7] turned out to be 0.83 µg/mL (≈ 1.84 µM); in [2] (Homo sapiens, MDA-MB-231, 72 h), 11.6 µM; in assay [5] (Homo sapiens, MCF7, 72 h), 49 µM.

Regarding `CNS(=O)(=O)c1ccc(-c2oc3c(CC=C(C)C)c(O)c(CC=C(C)C)c(O)c3c(=O)c2OC)cc1` [Compound 70, 4-[5,7-dihydroxy-3-methoxy-6,8-di(3-methyl-2-buten-1-yl)-4-oxo-4H-benzopyran-2-yl]N-methylbenzene sulfonamide], the IC50 in assay [7] was 0.39 µg/mL (≈ 0.759 µM); in [2] (Homo sapiens, MDA-MB-231, 72 h), 7.64 µM; in assay [5] (Homo sapiens, MCF7, 72 h), over 100 µM.

`COc1c(-c2ccc(F)cc2)oc2c(CC=C(C)C)c(O)c(CC=C(C)C)c(O)c2c1=O` [Compound 7, 2-(4-fluorophenyl)-5,7-dihydroxy-3-methoxy-6,8-di(3-methyl-2-buten-1-yl)-4H-benzopyran-4-one]: the IC50 in assay [1] was over 100 µM; in assay [7], 1.09 µg/mL (≈ 2.49 µM); in [2] (Homo sapiens, MDA-MB-231, 72 h) it was 10.9 ± 2.22 µM; in assay [3] it was 21.6 µM; in assay [4] (setting [10]) it was over 100 µM; in assay [5] (Homo sapiens, MCF7, 72 h), 12.6 ± 0.68 µM.

As to `COc1c(-c2ccc(C#N)cc2)oc2c(CC=C(C)C)c(O)c(CC=C(C)C)c(O)c2c1=O` [Compound 57, 4-[5,7-dihydroxy-3-methoxy-6,8-di(3-methyl-2-butenyl)-4-oxo-4H-benzopyran-2-yl]benzonitrile], the IC50 in assay [7] came to 21 µg/mL (≈ 47.2 µM); in assay [2] (Homo sapiens, MDA-MB-231, 72 h), 2.85 µM; in [5] (Homo sapiens, MCF7, 72 h), 4.84 µM.

As to “2-(4-fluoromethoxyphenyl)-5,7-dihydroxy-3-methoxy-6,8-di(3-methyl-2-buten-1-yl)-4H-benzopyran-4-one [Compound 61]”, the “Inhibition on liver cancer cells, IC50” value in assay [7] is 0.04 µg/mL. In addition, the IC50 came out at 3.28 µM in assay [2] (72 hours) and 3.52 µM in assay [5] (72 hours).
